# Key:
# Format in all cases: in vivo, rat
# sciatic nerve [1] = experiment: Counts of myelinated axons 5.0 mm proximal to repair by light microscopy; conditions: for Counts of Myelinated Axons - 5.0mm. Proximal to Repair by Light Microscopy 1.0 X 10^5 µm^2 - of Area: 12 mg/kg in 5% DMSO, bath + i.m. twice weekly; for % Difference: treated vs. control
# Method: (§1) lwenty raty art anenthetizve with sel rompun (0.5 cc total volume). The right sciatic nerve is exposed and severed with microneuroscissors, and subsequently repaired microsurgically with 6-8 circumferential microsutures using 10-0 nylon. Immediately following surgery the treated animals receive 12 mg/kg Ac leupeptin in 5% DMSO (dimethylsulphoxide) as a bath on their sciatic nerve, 0.25 cc. total volume. Then the treated animals are injected intramuscularly in right hindlimb with 0.25 cc of a solution containing 12 mg/kg Ac leupeptin in 5% DMSO. Control animals receive the same surgical treatment, but the bath and intramuscular injection consist only of the solvent and 5% DMSO.
# (§2) Thereafter, treated animals are injected twice weekly in the operated hindlimb with 12 mg/kg Ac leupeptin in 5% DMSO (0.25 cc total volume) for periods of 1 week, 1 month, two months, three months - and six months. Control animals are injected with 0.25 cc of 5% DMSO twice weekly in the operated hindlimb for the same time period.
# (§3) Two treated and two control animals are assigned to each of the stated time periods.
# (§4) A ten mm. portion of the repaired sciatic nerve is excised from each animal. This is fixed in 3.0% glutaraldehyde in 0.1 M sodium cacodylate, pH 7.3, overnight for electron microscopy. After post-fixation in 1.0% osmium tetroxide, ethanol dehydration and embedding in Polybed 812, both thick (1 micron) and thin (500 A°) transverse sections are cut on a ultramicrotome. Portions of the excised muscles receive similar preparation for electron microscopy.
# (§5) Thick sections of the sciatic nerve are placed on microscope slots stained with toluidine blue and photographed at a constant magnification in the light microscope. Thin sections of both nerve and muscles are placed on 300 mesh copper grid calm, stained with uranyl acetate and lead citrate and photographed using a Hitachi HU-12 electron microscope.
# sciatic nerve [2] = experiment: Counts of myelinated axons 5.0 mm distal to repair by light microscopy; conditions: for Counts of Myelinated Axons - 5.0 mm Distal to Repair by Light Microscopy 1.0 X 10^5 µm^2 - of Area: 12 mg/kg in 5% DMSO, bath + i.m. twice weekly; for % Difference Treated vs. Control: myelinated axons distal, light microscopy
# Method: as §1, §2, §3, §4, §5
# [3] = test system: muscles of the operated hindlimb; experiment: Myofiber diameter by light microscopy after sciatic nerve severing and microsurgical repair; conditions: for Average Myofiber Diameter (µm) by Light Microscopy: 12 mg/kg in 5% DMSO, bath + i.m. twice weekly; for % Difference Treated vs. Control: myofiber diameter
# Method: as §1, §2, §3
# All animals are sacrified by an overdose of pentobarbital, 1.0 cc total volume. The gastro- cnemius, soleus and extensor digitorum longus muscles of the operated hindlimb are execised from origin to insertion, weighed and then frozen in isopentane in liquid nitrogen […]. For light microscopy, cryostat sections are cut, placed on slides and stained with hematoxylin and eosin and/or ATPase histochemistry at pH's of 4.3 and 10.4. Myofiber diameters are determined by photographing hematoxylin and eosin sections at a constant magnification in the light microscope.
compound,measurement,setting,value
"CC(=O)N[C@@H](CC(C)C)C(=O)N[C@@H](CC(C)C)C(=O)N[C@H](C=O)CCCNC(=N)N [Ac leupeptin, acetyl-L-leu-L-leu-L-argininal]",Counts of Myelinated Axons - 5.0mm. Proximal to Repair by Light Microscopy 1.0 X 10^5 µm^2 - of Area,sciatic nerve [1]; One Month Treated,1162 1.0 X 10^5 µm^2 - of Area
same,Counts of Myelinated Axons - 5.0mm. Proximal to Repair by Light Microscopy 1.0 X 10^5 µm^2 - of Area,sciatic nerve [1]; One Week Treated,1089 1.0 X 10^5 µm^2 - of Area
same,Counts of Myelinated Axons - 5.0mm. Proximal to Repair by Light Microscopy 1.0 X 10^5 µm^2 - of Area,sciatic nerve [1]; Six Month Treated,1748 1.0 X 10^5 µm^2 - of Area
same,Counts of Myelinated Axons - 5.0mm. Proximal to Repair by Light Microscopy 1.0 X 10^5 µm^2 - of Area,sciatic nerve [1]; Three Month Treated,2200 1.0 X 10^5 µm^2 - of Area
same,Counts of Myelinated Axons - 5.0mm. Proximal to Repair by Light Microscopy 1.0 X 10^5 µm^2 - of Area,sciatic nerve [1]; Two Month Treated,1111 1.0 X 10^5 µm^2 - of Area
same,% Difference Treated Vs. Control,"sciatic nerve [1]; myelinated axons proximal, light microscopy, One Month",+7%
same,% Difference Treated vs. Control,"sciatic nerve [1]; myelinated axons proximal, light microscopy, One Week",+16%
same,% Difference Treated vs. Control,"sciatic nerve [1]; myelinated axons proximal, light microscopy, Six Month",+30%
same,% Difference,"sciatic nerve [1]; myelinated axons proximal, light microscopy, Three Month",+46%
same,% Difference,"sciatic nerve [1]; myelinated axons proximal, light microscopy, Two Month",+8%
same,Counts of Myelinated Axons - 5.0 mm Distal to Repair by Light Microscopy 1.0 X 10^5 µm^2 - of Area,sciatic nerve [2]; One Month Treated,1467 1.0 X 10^5 µm^2 - of Area
same,Counts of Myelinated Axons - 5.0 mm Distal to Repair by Light Microscopy 1.0 X 10^5 µm^2 - of Area,sciatic nerve [2]; One Week Treated,722 1.0 X 10^5 µm^2 - of Area
same,Counts of Myelinated Axons - 5.0 mm Distal to Repair by Light Microscopy 1.0 X 10^5 µm^2 - of Area,sciatic nerve [2]; Six Month Treated,1620 1.0 X 10^5 µm^2 - of Area
same,Counts of Myelinated Axons - 5.0 mm Distal to Repair by Light Microscopy 1.0 X 10^5 µm^2 - of Area,sciatic nerve [2]; Three Month Treated,2808 1.0 X 10^5 µm^2 - of Area
same,Counts of Myelinated Axons - 5.0 mm Distal to Repair by Light Microscopy 1.0 X 10^5 µm^2 - of Area,sciatic nerve [2]; Two Month Treated,1625 1.0 X 10^5 µm^2 - of Area
same,% Difference Treated vs. Control,sciatic nerve [2]; One Month,+2%
same,% Difference Treated vs. Control,sciatic nerve [2]; One Week,+1%
same,% Difference Treated vs. Control,sciatic nerve [2]; Six Month,0%
same,% Difference Treated vs. Control,sciatic nerve [2]; Three Month,+1%
same,% Difference Treated vs. Control,sciatic nerve [2]; Two Month,+12%
same,Average Myofiber Diameter (µm) by Light Microscopy,"[3]; One Month Treated, E.D.L.",34.1 µm
same,Average Myofiber Diameter (µm) by Light Microscopy,"[3]; One Month Treated, GASTROCNEMIUS",34.5 µm
same,Average Myofiber Diameter (µm) by Light Microscopy,"[3]; One Month Treated, SOLEUS",39.4 µm
same,Average Myofiber Diameter (µm) by Light Microscopy,"[3]; One Week Treated, E.D.L.",44.6 µm
same,Average Myofiber Diameter (µm) by Light Microscopy,"[3]; One Week Treated, GASTROCNEMIUS",62.3 µm
same,Average Myofiber Diameter (µm) by Light Microscopy,"[3]; One Week Treated, SOLEUS",49.2 µm
same,Average Myofiber Diameter (µm) by Light Microscopy,"[3]; Six Month Treated, E.D.L.",75.3 µm
same,Average Myofiber Diameter (µm) by Light Microscopy,"[3]; Six Month Treated, GASTROCNEMIUS",73.1 µm
same,Average Myofiber Diameter (µm) by Light Microscopy,"[3]; Six Month Treated, SOLEUS",79.5 µm
same,Average Myofiber Diameter (µm) by Light Microscopy,"[3]; Three Month Treated, E.D.L.",44.3 µm
same,Average Myofiber Diameter (µm) by Light Microscopy,"[3]; Three Month Treated, GASTROCNEMIUS",57.2 µm
same,Average Myofiber Diameter (µm) by Light Microscopy,"[3]; Three Month Treated, SOLEUS",47.9 µm
same,Average Myofiber Diameter (µm) by Light Microscopy,"[3]; Two Month Treated, E.D.L.",28.9 µm
same,Average Myofiber Diameter (µm) by Light Microscopy,"[3]; Two Month Treated, GASTROCNEMIUS",35.4 µm
same,Average Myofiber Diameter (µm) by Light Microscopy,"[3]; Two Month Treated, SOLEUS",42.3 µm
same,% Difference Treated vs. Control,"[3]; One Month, E.D.L.",+7%
same,% Difference Treated vs. Control,"[3]; One Month, GASTROCNEMIUS",+3%
same,% Difference Treated vs. Control,"[3]; One Month, SOLEUS",+24%
same,% Difference Treated vs. Control,"[3]; One Week, E.D.L.",+5%
same,% Difference Treated vs. Control,"[3]; One Week, GASTROCNEMIUS",+23%
same,% Difference Treated vs. Control,"[3]; One Week, SOLEUS",+9%
same,% Difference Treated vs. Control,"[3]; Six Month, E.D.L.",+29%
same,% Difference Treated vs. Control,"[3]; Six Month, GASTROCNEMIUS",+26%
same,% Difference Treated vs. Control,"[3]; Six Month, SOLEUS",+30%
same,% Difference Treated vs. Control,"[3]; Three Month, E.D.L.",+18%
same,% Difference Treated vs. Control,"[3]; Three Month, GASTROCNEMIUS",+3%
same,% Difference Treated vs. Control,"[3]; Three Month, SOLEUS",+9%
same,% Difference Treated vs. Control,"[3]; Two Month, E.D.L.",+10%
same,% Difference Treated vs. Control,"[3]; Two Month, GASTROCNEMIUS",+18%
same,% Difference Treated vs. Control,"[3]; Two Month, SOLEUS",+10%
same,myofiber diameter,[3]; treated muscle compared to control,significantly greater myofiber diameter when compared to control

# Source: patent EP0100673A2, “A method of enhancing neurofiber regrowth” (THE RESEARCH FOUNDATION OF STATE UNIVERSITY OF NEW YORK, priority 1982, dated 1984)
